Assay results taken from patent publication US20250179114A1, “Anti-Inflammatory Compound and Use Thereof” (DUALITY BIOLOGICS (SUZHOU) CO., LTD., priority 2021, published 2025).
Blank lines part the entries; values can stand above or below the compound they belong to.

Assays:
glucocorticoid receptor = biological target: T1, glucocorticoid receptor (Homo sapiens, UniProt P04150); experiment: Activity assay of glucocorticoid receptor reporter gene GRE; format: cell-based; details: HEK293 cells transfected with pGL5 and pBIND-GR; 24 h; Dual-Glo luciferase
T1 construct: host or cells: HEK293
T1 sequence (P04150 1-777): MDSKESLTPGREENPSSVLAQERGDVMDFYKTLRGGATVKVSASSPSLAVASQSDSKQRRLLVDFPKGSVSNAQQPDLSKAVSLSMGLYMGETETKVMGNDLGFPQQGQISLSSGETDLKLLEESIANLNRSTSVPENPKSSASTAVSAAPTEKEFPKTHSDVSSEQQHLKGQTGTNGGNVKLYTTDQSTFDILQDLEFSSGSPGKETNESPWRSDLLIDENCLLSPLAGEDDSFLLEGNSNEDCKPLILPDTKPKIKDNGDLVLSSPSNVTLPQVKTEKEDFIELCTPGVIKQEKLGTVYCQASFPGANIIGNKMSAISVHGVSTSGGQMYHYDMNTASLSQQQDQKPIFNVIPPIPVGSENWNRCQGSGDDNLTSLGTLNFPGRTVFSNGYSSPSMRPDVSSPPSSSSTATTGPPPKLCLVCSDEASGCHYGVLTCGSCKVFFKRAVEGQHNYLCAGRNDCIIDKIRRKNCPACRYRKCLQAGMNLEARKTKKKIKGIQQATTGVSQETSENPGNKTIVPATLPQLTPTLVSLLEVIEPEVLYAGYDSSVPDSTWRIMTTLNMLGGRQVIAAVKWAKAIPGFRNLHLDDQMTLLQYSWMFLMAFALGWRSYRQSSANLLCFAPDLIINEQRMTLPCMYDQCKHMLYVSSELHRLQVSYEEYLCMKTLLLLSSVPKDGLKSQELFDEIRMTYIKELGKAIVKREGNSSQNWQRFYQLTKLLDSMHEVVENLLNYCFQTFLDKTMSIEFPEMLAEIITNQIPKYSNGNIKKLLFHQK
Protocol: (§1) HEK293 cells were cultured in DMEM+10% FBS medium in a carbon dioxide incubator humidified at 37° C. with 5% carbon dioxide.
HEK293 cells were digested with trypsin, and the HEK293 cell resuspension was adjusted to 200,000 cell/mL in medium (96 well plate: 100 μL/well).
Transfection reagent mixtures were prepared according to Tables 5a and 5b below, mixed well and left to stand at room temperature for 20 min.
(§2) The prepared transfection mixtures were added to 10 mL of the cell density-adjusted resuspension, mixed well by turning the mixtures upside down, and seeded into a 96-well plate at a volume of 100 μL/well.
The 96-well plate was incubated in a humidified incubator at 37° C. with 5% carbon dioxide for 24 h.
The test plate was placed back into the incubator and incubated for 24 h.
(§3) The test plate was detected using the Dual-Glo Luciferase Assay System kit from Promega, and the fluorescence signal of Firefly Luciferase and the fluorescence signal of Renilla Luciferase were read using Enspire, respectively.
The final measurement value was a normalized value “F/R” obtained by dividing the Firefly Luciferase fluorescent signal by the Renilla Luciferase fluorescent signal.
The data were copied and pasted into Excel, and the activation rate was obtained through an equation.
The data were imported into MS Excel and subjected to curve fitting by using XLFit excel add-in version 5.4.0.8 to obtain an EC50 value.
(§4) Y is the agonism and X is the concentration of the compound.

GR = biological target: T2, GR (Homo sapiens, UniProt P04150); experiment: GR luciferase reporter gene elution experiment; format: cell-based; details: supernatant removed and washed, then 24 h; for Elution time (Act %) 15 min: incubation 15 min; for Elution time (Act %) 30 min: incubation 30 min; for Elution time (Act %) 1 h: incubation 1 h; for Elution time (Act %) 2 h: incubation 2 h; for Elution time (Act %) 4 h: incubation 4 h
T2 construct: host or cells: HEK293
T2 sequence (P04150 1-777): T1 sequence (P04150 1-777)
Protocol: The compounds of the present application were evaluated for their ability to continue activation upon binding to GR.
as §1
• 1) HEK293 cells were digested with trypsin, and the HEK293 cell resuspension was adjusted to 200,000 cell/mL in medium (96 well plate: 100 μL/well). • 2) Transfection reagent mixtures were prepared according to the table below, mixed well and left to stand at room temperature for 20 min.
as §2, with “• 3) The” for “The”, “μL/well. • 4) The 96-well plate was incubated in a humidified incubator at 37° C. with 5% carbon dioxide for 24 h.” for “μL/well.”
as §3
5. Data Processing • 1) The final measurement value was a normalized value “F/R” obtained by dividing the Firefly Luciferase fluorescent signal by the Renilla Luciferase fluorescent signal. • 2) The data were copied and pasted into Excel, and the activation rate was obtained through an equation.
[formula] • 3) The data were imported into MS Excel and subjected to curve fitting by using XLFit excel add-in version 5.4.0.8 to obtain an EC50 value.
as §4

DBA/1J mice = experiment: Bovine type II collagen mixed adjuvant-induced DBA/1 mouse arthritis (CIA) model; format: in vivo; details: Table 10-2; 0.2 mg/kg p.o.; mean
Protocol: Example 6: Assay of Biological Activity of Bovine Type II Collagen Mixed Adjuvant-Induced DBA/1 Mouse Arthritis Model
The potency of the ligand-drug conjugates (ADCs) of the present application was evaluated in a bovine collagen-induced arthritis (CIA) model.
Male DBA/1J mice were obtained from Jackson Labs. The mice were used at 6-8 weeks of age. All animals were given ad libitum access to food and water under a 12-hour light/dark cycle at constant temperature and humidity.
Bovine collagen (Chondrex, Inc. Cat: 20021) was dissolved in 0.1 M acetic acid and stored overnight in a 2-8 C refrigerator at a collagen concentration of 8 mg/mL, and an equal volume of CFA (complete Freund's adjuvant, Difco, Laurence, KS) was added into the collagen solution and emulsified in a high speed homogenizer to make an emulsion. On Day 0, animals in need of immunization were anesthetized with 2%-5% isoflurane and male DBA/J mice were immunized once with a single subcutaneous injection of 50 μL collagen/CFA emulsion at the tail root of 2-3 cm from the body. Three weeks later, namely on Day 21, the tail root was immunized twice with the same volume of collagen emulsion by the same injection method. After the second immunization, 120 animals with an average score of about 2 for the limb arthritis were selected and randomly grouped. The animals were treated by a single intraperitoneal injection of test reagent according to the experimental design after grouping. For the dexamethasone (Sphsine) treatment group, the drug was administered the day after grouping until the end of the trial. The extremities of each group were observed twice weekly for the onset of arthritis from the time of the second immunization, and the observation was continued until the end of the trial.
Scoring according to the degree of lesion (redness and swelling) was performed on a scale of 0-4 points, with a maximum score of 4 for each limb and a total maximum score of 16 for each animal's limbs. The scoring criteria are as follows: 0 points, no redness and swelling; 1 point, 1-2 red and swollen interphalangeal joints; 2 points, 3-4 red and swollen interphalangeal joints; 3 points, more than 4 red and swollen interphalangeal joints; 4 points, severe redness and swelling in toes or fingers to ankle joints or wrist joints. For joint swelling, ankle thickness of hind paw of each animal was measured with a screw micrometer before one immunization. Since the second immunization, measurements were performed 2 times per week, and changes in ankle thickness before and after the immunization were compared. After the trial was completed, all animals were anesthetized with 2-5% isoflurane and then euthanized by exsanguination.
Score AUC: area under the curve for arthritis score. The results are shown in Tables 10-1 and 10-2 and FIGS. 3a-3c.

SMILES: C[C@]12C=CC(=O)C=C1CC[C@H]1[C@@H]3C[C@H]4O[C@@H](c5ccc(Cc6ccc(N)cc6)s5)O[C@@]4(C(=O)CO)[C@@]3(C)C[C@H](O)[C@@]12F [Compound 17]
EC50 (glucocorticoid receptor): 0.33 nM
Elution time (Act %) 15 min (GR): 1.7%
Elution time (Act %) 30 min (GR): 0.7%
Elution time (Act %) 1 h (GR): 1.3%
Elution time (Act %) 2 h (GR): 2.9%
Elution time (Act %) 4 h (GR): 9.7%

SMILES: CC12C=CC(=O)C=C1CCC1C2C(O)CC2(C)C1CC1OC(c3ccc(Oc4cccc(N)c4)cn3)OC12C(=O)CO [Compound 19, (6aR,6bS,7S,8aS,8bS,10R,11aR,12aS,12bS)-10-(5-(3-aminophenoxy)pyridin-2-yl)-7-hydroxy-8b-(2-hydroxyacetyl)-6a,8a-dimethyl-1,2,6a,6b,7,8,8a,8b,11a,12,12a,12b-dodecahydro-4H-naphtho[2′,1′:4,5]indeno[1,2-d][1,3]dioxol-4-one]
EC50 (glucocorticoid receptor): > 1000 nM

SMILES: C[C@]12C=CC(=O)C=C1CC[C@@H]1[C@@H]2[C@@H](O)C[C@@]2(C)[C@H]1C[C@H]1O[C@@H](c3coc(Cc4cccc(N)c4)c3)O[C@]12C(=O)CO [Compound 20]
EC50 (glucocorticoid receptor): > 1000 nM

SMILES: C[C@]12C=CC(=O)C=C1CC[C@@H]1[C@@H]2[C@@H](O)C[C@@]2(C)[C@H]1C[C@H]1O[C@H](c3cnc(Cc4cccc(N)c4)s3)O[C@]12C(=O)CO [Compound 28S]
EC50 (glucocorticoid receptor): > 1000 nM

SMILES: C[C@@H]1C[C@H]2[C@@H]3CCC4=CC(=O)C=C[C@]4(C)[C@@]3(F)[C@@H](O)C[C@]2(C)[C@@]1(O)C(=O)CO [Dexamethasone, dexamethasone]
Arthritis score AUC (area under the curve for arthritis score) (DBA/1J mice): 24.50
Arthritis score D 0 (DBA/1J mice): 0.00
Arthritis score D 21 (DBA/1J mice): 0.00
Arthritis score D 24 (DBA/1J mice): 0.00
Arthritis score D 28 (DBA/1J mice): 0.00
Arthritis score D 31 (DBA/1J mice): 2.10
Arthritis score D 35 (DBA/1J mice): 2.90
Arthritis score Day 38 (DBA/1J mice): 1.30
Arthritis score Day 42 (DBA/1J mice): 0.50
Arthritis score Day 45 (DBA/1J mice): 0.20
Arthritis score Day 49 (DBA/1J mice): 0.00
Arthritis score Day 52 (DBA/1J mice): 0.00
Arthritis score Day 56 (DBA/1J mice): 0.00
Elution time (Act %) 15 min (GR): 9.4%
Elution time (Act %) 30 min (GR): 10.0%
Elution time (Act %) 1 h (GR): 7.2%
Elution time (Act %) 2 h (GR): 6.2%
Elution time (Act %) 4 h (GR): 31.9%

Second part, the compound after the results:

EC50 (glucocorticoid receptor): 0.13 nM
SMILES: C[C@]12C=CC(=O)C=C1CC[C@H]1[C@@H]3C[C@H]4O[C@@H](c5ccn(Cc6cccc(N)c6)c5)O[C@@]4(C(=O)CO)[C@@]3(C)C[C@H](O)[C@@]12F [Compound 7]

EC50 (glucocorticoid receptor): 0.07 nM
SMILES: C[C@]12C=CC(=O)C=C1CC[C@H]1[C@@H]3C[C@H]4O[C@@H](c5ccn(Cc6ccc(N)cc6)c5)O[C@@]4(C(=O)CO)[C@@]3(C)C[C@H](O)[C@@]12F [Compound 8]

EC50 (glucocorticoid receptor): 0.37 nM
SMILES: C[C@]12C=CC(=O)C=C1CC[C@@H]1[C@@H]2[C@@H](O)C[C@@]2(C)[C@H]1C[C@H]1O[C@@H](c3ccc(Cc4cccc(N)c4)s3)O[C@]12C(=O)CO [Compound 11]

EC50 (glucocorticoid receptor): 0.63 nM
SMILES: C[C@]12C=CC(=O)C=C1CC[C@@H]1[C@@H]2[C@@H](O)C[C@@]2(C)[C@H]1C[C@H]1O[C@@H](c3ccc(Cc4ccc(N)cc4)s3)O[C@]12C(=O)CO [Compound 15]

EC50 (glucocorticoid receptor): 0.28 nM
SMILES: C[C@]12C=CC(=O)C=C1CC[C@@H]1[C@@H]2[C@@H](O)C[C@@]2(C)[C@H]1C[C@H]1O[C@@H](c3cc(Cc4cccc(N)c4)cs3)O[C@]12C(=O)CO [Compound 18]

EC50 (glucocorticoid receptor): 10 nM
SMILES: C[C@]12C=CC(=O)C=C1CC[C@@H]1[C@@H]2[C@@H](O)C[C@@]2(C)[C@H]1C[C@H]1O[C@@H](c3cnc(Cc4cccc(N)c4)s3)O[C@]12C(=O)CO [Compound 28, reference compound]
